Tested on: subjects with no history of cardiovascular disease, blood hs-CRP value of at least 1.0 mg/L
Assay: Hisayama epidemiologic study: events by administration of statin drug and EPA in the high hs-CRP group
Type: in vivo, human
Excerpt: The Hisayama study is an epidemiologic study of cerebral stroke, cardiovascular disease, and the like that has been conducted with the residents of the town of Hisayama town (population, about 8,400) in Kasuya county of Fukuoka prefecture adjacent to Fukuoka city from 1961. The age and occupation distributions of the residents of Hisayama town were almost identical to those of Japan as a whole, and the residents can be regarded as an average group of Japanese people with substantially no bias. Features of the Hisayama study include participation of all residents (who are at least 40 years old), prospective cohort study, examination and home visit by the stuff of the study, consultation rate (at least 80%), autopsy rate (about 80%), and follow-up rate (at least 99%), and the most characteristic feature of this study is the high rate of autopsy. No diagnosis is more accurate than autopsy in finding out the accurate cause of the death, and the precision of the follow up study is also high. In addition, the Hisayama study periodically adds the residents who have reached 40 years old to the group every 5 years, and estimation of influence of the life style transition as well as change of risk factors was thereby enabled.
3,103 residents of 40 years old or older who were registered in 2002 were used for the subject excluding those who have history of cardiovascular disease and those with no data of EPA/AA ratio. Average follow-up period was 5.1 years.
The group with a blood hs-CRP value of at least 1.0 mg/L (high hs-CRP group) was extracted from the entire subjects. The blood hs-CRP value was quantitated by using a commercially available assay kit.
The high hs-CRP group was further divided into 4 groups by the administration and non-administration of the statin drug and the administration and non-administration of the EPA.
In the table, “statin (−)+EPA (−)” means that neither the statin drug nor the EPA was administered to a subject; “statin (+)+EPA (−)” means that the statin drug was administered but not the EPA; “statin (−)+EPA (+)” means that the statin drug was not administered despite the administration of the EPA; and “statin (+)+EPA (+)” means that both the statin drug and the EPA were administered. Furthermore, “event (−)” and “event (+)” […].

[1] = high hs-CRP group, EPA irrespective of statin, statin drug vs no statin within the group with no EPA
[2] = number of subjects, high hs-CRP group (hs-CRP ≧1.0 mg/L), average follow-up 5.1 years

CC/C=C\C/C=C\C/C=C\C/C=C\C/C=C\CCCC(=O)O [EPA, all-cis-5,8,11,14,17-icosapentaenoic acid]
4: Cardiovascular disease, Event (−) [2] | Cerebral stroke, Event (−) [2] | Coronary artery disease, Event (−) [2]
no event occurred: Cerebral stroke event occurrence (in words) (entire subjects, irrespective of administration of the statin drug) | Cardiovascular disease event occurrence (in words) [1] | Cerebral stroke event occurrence (in words) [1] | Coronary artery disease event occurrence (in words) [1]
0: Cardiovascular disease, Event (+) [2] | Cerebral stroke, Event (+) [2] | Coronary artery disease, Event (+) [2]

Reference: US9700538B2, “Cardiovascular disease primary prevention agent for patients having high blood levels of high-sensitivity C-reactive protein” (MOCHIDA PHARMACEUTICAL CO., LTD., priority 2012, dated 2017)
